# Test results from PMC8074679, “Synthesis and pharmacological characterization of glucopyranosyl-conjugated benzyl derivatives as novel selective cytotoxic agents against colon cancer” (Royal Society Open Science, 2021).
# Read-outs that look alike come from different tables or passages of the source.
# Legend:
# HCT-116 cells [1] = test: MTS cytotoxicity assay, HCT-116; conditions: for IC50: read-out: IC50 (μM) HCT-116; for selectivity: ratio of cytotoxicity against 293T cells over cytotoxicity against HCT-116 cells
# Protocol: (§3) HCT-116 cells were cultured in McCoy's 5a Modified Medium (Gibco, USA). […] Both media contain 10% fetal bovine serum (Gibco, USA) and 1% penicillin–streptomycin (Gibco, USA). Cells were maintained in incubator (Thermo Fisher, USA) supplied with 5% CO2 at 37°C. Only cells in logarithmic phase were used in all following experiments.
# (§4) In brief, cells were seeded into 96-well plate (Corning, USA) with a density of 3000 cells/well for 24 h, and then treated with tested compounds at various concentrations for 72 h.
# 293T cells = test: MTS cytotoxicity assay, 293T (model of normal cells); conditions: read-out: IC50 (μM) 293T
# Protocol: as §3, §4
# HCT-116 cells [2] = test: Annexin V staining in living cells; assay type: cell-based, human; conditions: 5 µM, 72 h
# Protocol: (§1) Next, the type of cell death induced by compound 8d was investigated. […] Annexin V/PI staining assay were carried out to analyse the apoptotic rate of HCT-116 cells.
# Cells that seed on coverslips were treated with compound 8d (5 µM) for 72 h. Annexin V-FITC was used to target exposed phosphatidylserine which is a marker of early apoptosis. The nucleus of living cells was labelled by Hoechst 33258. The cells were observed by fluorescence microscope (Olympus, Japan).
# HCT-116 cells [3] = test: TUNEL assay; assay type: cell-based, human; conditions: 5 µM, 72 h
# Protocol: as §1
# TdT-UTP nick end-labelling (TUNEL) assay was used to detect the apoptotic cells by in situ cell death detection kit (Roche, Germany) according to the manufacturer's instruction. Briefly, HCT-116 cells were seeded on coverslips and cultured overnight, following treatment with compound 8d (5 µM) for 72 h, then fixed with 4% paraformaldehyde for 30 min and permeabilized with 0.1% Triton X-100 for 2 min on ice. TUNEL reaction mixture was applied to the cells in an atmosphere for 1 h at 37°C in the dark, following with converter-POD and DAB substrate treatment. Samples were detected by a microscope (Olympus, Japan).
# HCT-116 cells [4] = test: Hoechst 33258 staining; assay type: cell-based, human; conditions: 5 µM, 48 or 72 h
# Protocol: as §1
# HCT-116 cells were seeded in coverslips for 24 h, and then compound 8d was incubated at a concentration of 5 µM for 48 or 72 h. Cells were incubated with Hoechst 33258 (Sigma, USA) in the dark at room temperature for 30 min after being fixed with 4% paraformaldehyde. The nuclear morphology of apoptosis was observed by fluorescence microscope (Olympus, Japan).
# HCT-116 cells [5] = test: Colony formation assay; assay type: cell-based, human; conditions: pre-treatment 24 h with various concentrations, 9 days culture after withdrawal
# Protocol: (§2) Thus, it was further studied to understand its underlying antiproliferation mechanism. The confluence areas of HCT-116 cells treated with various concentrations of compound 8d were detected by a live cell analysis imaging system.
# HCT-116 cells were seeded in 6-well plates at a density of 300 cells per well and cultured overnight, and then treated with various concentrations of compound 8d for 24 h. Cells were continuously cultured for 9 days after drug withdrawal. Finally, 1% crystal violet was used to stain cells after fixing with 4% paraformaldehyde, and the visible colonies were recorded by the microscope and counted manually using imageJ.
# HCT-116 cells [6] = test: Annexin V/PI double staining, flow cytometry; assay type: cell-based, human; conditions: 2.5 and 5 µM
# Protocol: as §1
# Cells were seeded in 6-well plates with a density of 5 × 10^5 cells per well and then treated with various concentrations of compound 8d (0 µM, 2.5 µM and 5 µM) for 48 h. Cells were collected and stained with annexin V and PI for 20 min, and then detected by flow cytometer (BD, USA) to analyse the apoptotic cell distribution. Living cells (annexin V^−/PI^−), early apoptotic cells (annexin V^+/PI^−), late apoptotic cells (annexin V^+/PI^+) and necrotic cells (annexin V^−/PI^+) were calculated in the Cell Quest software (BD, USA).
# HCT-116 cells [7] = test: Live cell imaging of confluence area (Incucyte); assay type: cell-based, human
# Protocol: as §2
# Cells were seeded into 24-well plate (1 × 10^4 cells well^−1) for 24 h. Different concentrations of compound 8d were added to treat cells. Time-lapse photography of cells was recorded by Incucyte system. The confluences relative to total well area were calculated using a module of the cell confluence area analysing.
# [8] = MTS assay, 72 h treatment, mean ± s.d.
Structure (SMILES),"IC50 (HCT-116 cells [1]; Homo sapiens, HCT-116, 72 h) [µM]",selectivity (HCT-116 cells [1]),"IC50 (293T cells; Homo sapiens, HEK-293T, 72 h) [µM]",further results
"CC(=O)OC[C@H]1OC(OC(C)=O)[C@H](n2cc(COCc3ccc(Br)cc3)nn2)[C@@H](OC(C)=O)[C@@H]1OC(C)=O (stereo partly drawn) [8 g, 1-(1,3,4,6-Tetra-O-acetyl-D-glucopyranosyl)-4-(4-bromobenzene)hydryloxymethyl-[1,2,3]-triazole]",4.55 ± 0.23,2.56,11.7 ± 0.16,
"CC(=O)OC[C@H]1OC(OC(C)=O)[C@H](n2cc(CO)nn2)[C@@H](OC(C)=O)[C@@H]1OC(C)=O (stereo partly drawn) [Compound 8a, 1-(1,3,4,6-Tetra-O-acetyl-D-glucopyranosyl)-4-hydroxymethyl-[1,2,3]-triazole]",> 50,,> 50,cytotoxicity / antiproliferation activity towards HCT-116 (in words) (HCT-116 cells [1]; MTS assay): fairly weak
"O=c1[nH]cc(F)c(=O)[nH]1 [Compound 5-FU, 5-Fluorouracil, reference compound]",3.62 ± 1.22,2.52,9.13 ± 1.63,
"CC(=O)OC[C@H]1OC(OC(C)=O)[C@H](n2cc(COCc3ccc(F)cc3)nn2)[C@@H](OC(C)=O)[C@@H]1OC(C)=O (stereo partly drawn) [Compound 8e, 1-(1,3,4,6-Tetra-O-acetyl-D-glucopyranosyl)-4-(4-fluorobenzene)hydryloxymethyl-[1,2,3]-triazole]",4.17 ± 0.06,1.94,8.1 ± 0.08,
"CC(=O)OC[C@H]1OC(OC(C)=O)[C@H](n2cc(COCc3ccc(Cl)cc3)nn2)[C@@H](OC(C)=O)[C@@H]1OC(C)=O (stereo partly drawn) [Compound 8f, 1-(1,3,4,6-Tetra-O-acetyl-D-glucopyranosyl)-4-(4-chlorobenzene)hydryloxymethyl-[1,2,3]-triazole]",7.04 ± 0.06,3.18,22.41 ± 0.05,
"CC(=O)OC[C@H]1OC(OC(C)=O)[C@H](N)[C@@H](OC(C)=O)[C@@H]1OC(C)=O (stereo partly drawn) [AOAG, reference compound]",,,,IC50 (HCT-116 cells [1]; [8]): > 200 µM; IC50 (293T cells; [8]): > 200 µM
"CC(=O)OC[C@H]1OC(OC(C)=O)[C@H](n2cc(COCc3ccc(C(F)(F)F)cc3)nn2)[C@@H](OC(C)=O)[C@@H]1OC(C)=O (stereo partly drawn) [8 h, 1-(1,3,4,6-Tetra-O-acetyl-D-glucopyranosyl)-4-(4-trifluoromethylbenzene)hydryloxymethyl-[1,2,3]-triazole]",14.3 ± 2.18,0.42,6.09 ± 0.42,
"COc1ccc(COCc2cn([C@H]3C(OC(C)=O)O[C@H](COC(C)=O)[C@@H](OC(C)=O)[C@@H]3OC(C)=O)nn2)cc1 (stereo partly drawn) [Compound 8d, 1-(1,3,4,6-Tetra-O-acetyl-D-glucopyranosyl)-4-(4-methoxybenzene)hydryloxymethyl-[1,2,3]-triazole]",2.88 ± 0.32,10.89,31.35 ± 0.1,"Annexin V-FITC staining on cellular membranes of living cells (HCT-116 cells [2]): Annexin-V-positive staining emerged on cellular membranes; DNA fragmentation, TUNEL assay (HCT-116 cells [3]): DNA fragmentation emerged; cytotoxicity / antiproliferation activity towards HCT-116 (in words) (HCT-116 cells [1]; MTS assay): comparable to 5-FU; apoptotic DNA fragmentation, Hoechst 33258 staining (HCT-116 cells [4]): Apoptotic DNA fragmentation; colony formation of HCT-116 (HCT-116 cells [5]): inhibited the colony formation of HCT-116 by a dose-dependent manner; induction of apoptosis, Annexin V/PI assay (in words) (HCT-116 cells [6]): dose-dependently induced early apoptosis and late apoptosis; proliferation of HCT-116 cells (confluence area) (HCT-116 cells [7]; 10 µM, for at least 72 h): completely inhibited; proliferation of HCT-116 cells (confluence area), dose dependence (HCT-116 cells [7]; various concentrations): dose-dependently inhibited the proliferation"
"CC(=O)OC[C@H]1OC(OC(C)=O)[C@H](N=[N+]=[N-])[C@@H](OC(C)=O)[C@@H]1OC(C)=O (stereo partly drawn) [Compound 4, 1,3,4,6-Tetra-O-acetyl-2-azido-2-deoxy-D-glucose, reference compound]",97.5 ± 1.58,0.48,46.9 ± 2.93,
"CC(=O)OC[C@H]1OC(OC(C)=O)[C@H](n2cc(COCc3ccc(C)cc3)nn2)[C@@H](OC(C)=O)[C@@H]1OC(C)=O (stereo partly drawn) [Compound 8c, 1-(1,3,4,6-Tetra-O-acetyl-D-glucopyranosyl)-4-(4-methylbenzene)hydryloxymethyl-[1,2,3]-triazole]",6.4 ± 0.2,3.06,19.57 ± 0.13,
"CC(=O)OC[C@H]1OC(OC(C)=O)[C@H](n2cc(COCc3ccc([N+](=O)[O-])cc3)nn2)[C@@H](OC(C)=O)[C@@H]1OC(C)=O (stereo partly drawn) [Compound 8i, 1-(1,3,4,6-Tetra-O-acetyl-D-glucopyranosyl)-4-(4-nitrobenzene)hydryloxymethyl-[1,2,3]-triazole]",17.3 ± 3.86,0.46,8 ± 0.77,
"OCc1ccccc1 [Compound 6b, reference compound]",> 200,,> 200,
